# Experiments:
# [1] = target: T1, human GHSR (growth hormone secretagogue receptor) (Homo sapiens, UniProt Q92847); format: cell-based; conditions: 1 μM compound, 10 nM Ghrelin, human GHSR CHO-K1 cells
# T1 construct: host or cells: CHO-K1
# Experimental: Assessment of Ghrelin Antagonism Using Human GHSR Stably Expressing Cells
# By using cells wherein human GHSR (growth hormone secretagogue receptor) is stably expressed, the effects of compounds of the Examples on elevation of cellular calcium ion concentrations were evaluated when endogenous ligand Ghrelin was added to the cells.
# Human GHSR stably expressing CHO-K1 cells (EUROSCREEN) were seeded on 96-well assay plate (Black plate, Clear Bottom (Corning)) in 2×10^4 cells/100 μl/well, and incubated in cell culture device for 1 day at 37° C. under 5% CO2. […]
# Ghrelin was combined with an equal amount of the test compound which was prepared with Hanks/Hepes (pH7.4) in a concentration of 10-times of the final concentration, and the mixture was added to the cells in 50 μl/well. Immediately after that, excitation wavelength in 488 nm was measured by FLIPR (Molecular Devices) 80 times at 1 second interval. Ghrelin antagonistic ratio (%) of the compound in the concentration of 1 μM was calculated according to the following equation wherein the values of fluorescence intensity means those obtained by deducting the minimum value from the maximum value. […]
# A: Fluorescence intensity in case of adding 1 μM of the compound and 10 nM of Ghrelin
# B: Fluorescence intensity in case of no addition of the compound and Ghrelin
# C: Fluorescence intensity in case of adding only 10 nM of Ghrelin
# [2] = system: Ghrelin-induced feeding increasing mice; assay: Assessment of feeding in mice (Ghrelin-induced feeding increasing mice); format: in vivo; conditions: ICR mice, compound i.p. 12.5, 25, 50 mg/kg, Ghrelin 250 nmol/kg i.v., 1, 2 and 4 hours
# Experimental: Assessment of Feeding in Mice
# The effects of compounds of the Examples on the feeding amount in intraperitoneally administering the compound were evaluated using Ghrelin-induced feeding increasing mice.
# ICR mice (male, 7-week-old, Charles River Laboratories) were fed in 5 mice in each cage. Food (CE-2, Oriental Yeast Co., Ltd.) and sterile tap water were intaken freely.
# ICR mice were intraperitoneally administered the compound (12.5, 25, 50 mg/kg) miscible in 10% polyethylene glycol #400, and immediately after that, intravenously administered Ghrelin (250 nmol/kg) dissolved in saline.
# The food weight was measured 4 times in total: just before the administration of Ghrelin, and 1, 2 and 4 hours after the administration. The inhibition ratio was calculated according to the following equation and the integrated feeding amount until each measuring time point. Each treatment group consisted of 10 mice.
# Inhibition ratio (%)=(B−C)/(B−A)×100
# A: Feeding amount (g) in group administered with only vehicle
# B: Feeding amount (g) in group administered with only Ghrelin
# C: Feeding amount (g) in group administered with Ghrelin and test compound
# T1 sequence (Q92847 whole entry): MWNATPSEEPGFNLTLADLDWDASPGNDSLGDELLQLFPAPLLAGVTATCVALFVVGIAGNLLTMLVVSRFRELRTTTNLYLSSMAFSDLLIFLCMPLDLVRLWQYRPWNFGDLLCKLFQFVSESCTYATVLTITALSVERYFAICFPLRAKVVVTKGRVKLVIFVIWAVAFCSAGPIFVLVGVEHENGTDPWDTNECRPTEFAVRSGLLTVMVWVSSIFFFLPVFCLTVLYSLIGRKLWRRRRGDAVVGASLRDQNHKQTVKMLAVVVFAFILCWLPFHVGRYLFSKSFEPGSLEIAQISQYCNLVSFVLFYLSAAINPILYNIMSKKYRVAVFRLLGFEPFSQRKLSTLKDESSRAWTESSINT
SMILES,Ghrelin antagonistic ratio [1] [%],"Inhibition ratio of feeding amount, maximum [2] [%]"
"CCN(CC)[C@H]1C[C@H](CN2C(=O)C(O)(c3ccc(Cl)cc3Cl)c3c2cc(C(N)=O)cc3C(F)(F)F)C1.Cl (stereo partly drawn) [Example 1, 3-(2,4-dichlorophenyl)-1-[trans-3-(diethylamino)-cyclobutylmethyl]-4-trifluoromethyl-3-hydroxy-2-oxoindoline-6-carboxamide Hydrochloride]",82,110
"CCN(CC)[C@H]1C[C@H](CN2C(=O)C(O)(c3ccc(Cl)cc3Cl)c3c2cc(-c2ncco2)cc3C(F)(F)F)C1 (stereo partly drawn) [Example 14, 3-(2,4-dichlorophenyl)-1-[trans-3-(diethylamino)-cyclobutylmethyl]-4-trifluoromethyl-3-hydroxy-6-(2-oxazolyl)-1,3-dihydro-2H-indol-2-one]",74,

# — patent US7825155B2, “Oxindole derivative as feeding control agent” (priority 2005, dated 2010)
